Test results taken from publication PMC3532212 (PLoS ONE, 2012).
Blank lines part the entries; values can stand above or below the compound they belong to.

What was measured:
[1] = Plasma concentrations after a single oral dose in rats; format: in vivo; settings: rat; for concentration at 4 hr / concentration at 8 h / concentration at 24 h / concentration at 48 h / concentration at 72 h: male, Sprague Dawley, plasma; for concentration at 4 hr / concentration at 8 h / concentration at 24 h / concentration at 48 h / concentration at 72 h / Plasma concentration: mean±SEM; for time post-dose through which plasma values were detectable: FTY720 single oral dose
Procedure: Mean arterial pressure was assessed in conscious, freely moving male Sprague Dawley rats (n = 6–8/group; Charles River) instrumented with telemetry transmitters (DSI-Ponemah) and housed in metabolism cages as previously described, [26]. Tested compounds were solubilized in a 0.5% Methylcellulose/0.015% Tween 80 vehicle that was also dosed alone (p.o./QD, 5 mL/kg) as a control in the study. FTY720 was administered p.o. at 0.3, 1.0, 3.0, 10.0 mg/kg p.o. as a single dose or p.o./QD at 0.5, 1.5, and 5.0 mg/kg in a chronic study. BAF312 was administered p.o/QD at 0.3, 3.0, and 30 mg/kg as a single dose and in a chronic study. Mean arterial pressure and heart rate are shown as 1-hr and/or 24-hr mean values±SEM as described in the results. Blood samples in satellite rats were withdrawn at various timepoints as described in the results for analysis of plasma concentrations of the parent compound and, in the case of FTY720, also the phosphorylated metabolite, (S)-FTY720-P. Statistical analysis for the single-dose acute studies was based on one-way ANOVA to compare the treatment groups vs. vehicle for each time period after dosing (0–24 hrs, 24–48 hrs, and 48–72 hrs); statistical significance (p<0.05) was detected by Dunnett’s post-hoc test to compare treatment with vehicle controls. The statistical analysis in the chronic studies were based on one-way ANOVA with repeated measures to compare the treatment arms; statistical significance (p<0.05) was detected by Dunnett’s post-hoc test to compare treatment with vehicle controls.

rats [2] = system: rats; parameters: method as in PMID 12352874; settings: FTY720 5 mg/kg/d; cited from earlier work
patients = system: patients; parameters: method as in PMID 20089954; settings: 1-yr trial; cited from earlier work
rats [3] = test: Urinary sodium excretion in rats; format: in vivo, rat; settings: subset of telemetry rats administered FTY720; unpublished preliminary observation
[4] = Heart tissue concentrations at the end of the repeat-dosing study; format: in vivo; settings: rat
Procedure: In the repeat-dosing study with FTY720 (0.5, 1.5, and 5.0 mg/kg/d), plasma concentrations were also determined ( Table 3 ).

[5] = system: mouse and rat experimental autoimmune encephalitis, EAE; parameters: method as in PMID 23436932; settings: correlated with reduced circulating lymphocytes and monocytes; cited from earlier work
[6] = CSF concentrations after a single oral dose of FTY720, satellite rats; format: in vivo, rat; settings: FTY720 3.0 or 10 mg/kg single oral dose, 4, 8, 24, 72-hrs post-dose
Procedure: Prior to longer-term hypertension studies with FTY720 an acute, single oral-dose study was performed to define the lower and upper limits of a pharmacologically-active dose with respect to acute hemodynamic effects. […] Values of both the parent and metabolite were detectable through at least 72-hrs post-dose. Tissue concentrations in the brain, skeletal muscle, and CSF were also determined in a separate group of satellite rats (please see Supplementary Figure, S2 ). Relative to the vehicle control group, FTY720 elicited dose-dependent and sustained increases in mean arterial pressure after a single oral dose, an effect that reached statistical significance in the 3 and 10 mg/kg dose groups (to 13.5±1.8 and 19.9±2.8 mmHg above baseline, respectively, based on a 24-hr mean values on day 1 vs. 3.6±1.5 mmHg in vehicle controls, Figure 4 , A). […] The acute hemodynamic effects of a single oral dose of BAF312 (0.3, 3.0, and 30 mg/kg) were also quantified.
A blood sample or tissues were harvested from satellite rats at 4, 8, 24, and 72-hrs post-dose. […] (TIF) Click here for additional data file.

human S1P5 = biological target: T1, human S1P5 (Homo sapiens, UniProt Q9H228); test: B arrestin recruitment assay, Tango EDG8-bla U2OS cells; format: cell-based; settings: 18 hours agonist incubation
T1 construct: host or cells: U2OS (Tango EDG8-bla)
T1 sequence (Q9H228 whole entry): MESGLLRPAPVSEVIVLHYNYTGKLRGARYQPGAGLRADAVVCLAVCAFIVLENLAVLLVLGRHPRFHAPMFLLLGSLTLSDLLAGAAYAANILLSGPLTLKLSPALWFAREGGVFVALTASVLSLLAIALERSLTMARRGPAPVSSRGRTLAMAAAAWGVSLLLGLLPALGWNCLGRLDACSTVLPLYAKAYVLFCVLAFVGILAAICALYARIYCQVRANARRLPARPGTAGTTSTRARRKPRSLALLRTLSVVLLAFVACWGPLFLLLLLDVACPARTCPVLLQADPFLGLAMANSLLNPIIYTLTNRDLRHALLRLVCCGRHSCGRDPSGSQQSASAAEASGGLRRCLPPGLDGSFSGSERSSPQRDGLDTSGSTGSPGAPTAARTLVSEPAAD
Procedure: (§1) Tango™ EDG1-bla U2OS cells (Human S1P1), Tango™ EDG3-bla U2OS cells (human S1P3), Tango™ EDG6-bla U2OS cells (human S1P4) and Tango™ EDG8-bla U2OS cells (human S1P5) cell lines were cultured and assayed according to manufacturers instructions with one modification; agonists incubated on the cells for 18 hours prior to addition of the GenBlazer substrate. Final DMSO concentration in the assay is 1%.

Human S1P1 = biological target: T2, Human S1P1 (Homo sapiens, UniProt P21453); test: B arrestin recruitment assay, Tango EDG1-bla U2OS cells; format: cell-based; settings: 18 hours agonist incubation
T2 construct: host or cells: U2OS (Tango EDG1-bla)
T2 sequence (P21453 whole entry): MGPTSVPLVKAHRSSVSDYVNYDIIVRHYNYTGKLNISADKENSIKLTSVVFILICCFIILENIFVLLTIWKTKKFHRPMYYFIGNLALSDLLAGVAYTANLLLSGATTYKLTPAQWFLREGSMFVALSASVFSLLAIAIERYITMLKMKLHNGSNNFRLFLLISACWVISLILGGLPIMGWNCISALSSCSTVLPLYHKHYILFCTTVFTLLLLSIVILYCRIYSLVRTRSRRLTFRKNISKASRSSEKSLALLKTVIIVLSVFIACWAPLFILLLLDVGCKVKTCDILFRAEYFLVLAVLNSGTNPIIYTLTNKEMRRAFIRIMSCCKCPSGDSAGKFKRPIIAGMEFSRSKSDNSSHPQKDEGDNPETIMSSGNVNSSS
Procedure: as §1

human S1P3 = biological target: T3, human S1P3 (Homo sapiens, UniProt Q99500); test: B arrestin recruitment assay, Tango EDG3-bla U2OS cells; format: cell-based; settings: 18 hours agonist incubation
T3 construct: host or cells: U2OS (Tango EDG3-bla)
T3 sequence (Q99500 whole entry): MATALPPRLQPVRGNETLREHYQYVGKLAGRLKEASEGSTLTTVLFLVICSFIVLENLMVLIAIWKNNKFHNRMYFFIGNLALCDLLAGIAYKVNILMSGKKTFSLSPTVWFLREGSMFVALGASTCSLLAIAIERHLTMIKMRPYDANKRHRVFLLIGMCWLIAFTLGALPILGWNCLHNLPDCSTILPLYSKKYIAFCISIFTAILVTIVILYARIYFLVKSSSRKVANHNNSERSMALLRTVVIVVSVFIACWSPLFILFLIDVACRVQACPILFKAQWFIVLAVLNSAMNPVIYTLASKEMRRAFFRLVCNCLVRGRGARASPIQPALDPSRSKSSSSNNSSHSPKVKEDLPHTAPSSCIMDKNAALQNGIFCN
Procedure: as §1

human S1P4 = biological target: T4, human S1P4 (Homo sapiens, UniProt O95977); test: B arrestin recruitment assay, Tango EDG6-bla U2OS cells; format: cell-based; settings: for EC50: B arrestin, 18 hours agonist incubation
T4 construct: host or cells: U2OS (Tango EDG6-bla)
T4 sequence (O95977 1-384): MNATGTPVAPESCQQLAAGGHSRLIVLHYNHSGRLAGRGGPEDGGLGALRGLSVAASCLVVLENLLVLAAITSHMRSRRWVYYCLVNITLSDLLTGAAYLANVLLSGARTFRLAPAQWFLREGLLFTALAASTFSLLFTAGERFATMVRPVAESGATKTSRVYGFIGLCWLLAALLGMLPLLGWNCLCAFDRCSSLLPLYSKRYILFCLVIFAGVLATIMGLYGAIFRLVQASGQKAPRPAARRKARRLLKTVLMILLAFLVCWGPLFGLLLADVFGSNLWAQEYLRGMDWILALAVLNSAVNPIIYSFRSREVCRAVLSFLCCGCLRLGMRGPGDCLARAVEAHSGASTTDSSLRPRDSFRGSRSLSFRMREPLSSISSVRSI
Procedure: as §1

[7] = FTY720 0.3 mg/kg single oral dose, 4 hr post-dose
[8] = FTY720 0.3 mg/kg single oral dose, 8 hr post-dose
[9] = FTY720 0.3 mg/kg single oral dose, 24 hr post-dose
[10] = FTY720 0.3 mg/kg single oral dose, 48 hr post-dose
[11] = FTY720 0.3 mg/kg single oral dose, 72 hr post-dose
[12] = FTY720 1.0 mg/kg single oral dose, 4 hr post-dose
[13] = FTY720 1.0 mg/kg single oral dose, 8 hr post-dose
[14] = FTY720 1.0 mg/kg single oral dose, 24 hr post-dose
[15] = FTY720 1.0 mg/kg single oral dose, 48 hr post-dose
[16] = FTY720 1.0 mg/kg single oral dose, 72 hr post-dose
[17] = FTY720 3.0 mg/kg single oral dose, 4 hr post-dose
[18] = FTY720 3.0 mg/kg single oral dose, 8 hr post-dose
[19] = FTY720 3.0 mg/kg single oral dose, 24 hr post-dose
[20] = FTY720 3.0 mg/kg single oral dose, 48 hr post-dose
[21] = FTY720 3.0 mg/kg single oral dose, 72 hr post-dose
[22] = FTY720 10.0 mg/kg single oral dose, 4 hr post-dose
[23] = FTY720 10.0 mg/kg single oral dose, 8 hr post-dose
[24] = FTY720 10.0 mg/kg single oral dose, 24 hr post-dose
[25] = FTY720 10.0 mg/kg single oral dose, 48 hr post-dose
[26] = FTY720 10.0 mg/kg single oral dose, 72 hr post-dose
[27] = FTY720 0.3 mg/kg single oral dose
[28] = FTY720 1.0 mg/kg single oral dose
[29] = FTY720 3.0 mg/kg single oral dose
[30] = FTY720 10 mg/kg single oral dose

- concentration at 4 hr [1, 7]: 10 ± 5 nM
- concentration at 8 h [1, 8]: 14 ± 5 nM
- concentration at 24 h [1, 9]: 15 ± 3 nM
- concentration at 48 h [1, 10]: 13 ± 1 nM
- concentration at 72 h [1, 11]: 7 ± 2 nM
- concentration at 4 hr [1, 12]: 25 ± 3 nM
- concentration at 8 h [1, 13]: 36 ± 5 nM
- concentration at 24 h [1, 14]: 22 ± 2 nM
- concentration at 48 h [1, 15]: 12 ± 1 nM
- concentration at 72 h [1, 16]: 10 ± 1 nM
- concentration at 4 hr [1, 17]: 62 ± 4 nM
- concentration at 8 h [1, 18]: 79 ± 17 nM
- concentration at 24 h [1, 19]: 91 ± 19 nM
- concentration at 48 h [1, 20]: 53 ± 15 nM
- concentration at 72 h [1, 21]: 34 ± 4 nM
- concentration at 4 hr [1, 22]: 146 ± 18 nM
- concentration at 8 h [1, 23]: 274 ± 46 nM
- concentration at 24 h [1, 24]: 301 ± 31 nM
- concentration at 48 h [1, 25]: 143 ± 16 nM
- concentration at 72 h [1, 26]: 101 ± 21 nM
- Plasma concentration at Tmax [1, 27]: 15 ± 3 nM
- Plasma concentration at Tmax [1, 28]: 36 ± 5 nM
- Plasma concentration at Tmax [1, 29]: 91 ± 19 nM
- Plasma concentration at Tmax [1, 30]: 301 ± 31 nM
- time post-dose through which plasma values were detectable [1]: at least 72 hrs
- mean tissue concentration in heart ([4]; FTY720 0.5 mg/kg/d p.o.): 379 ng/g
- mean tissue concentration in heart ([4]; FTY720 1.5 mg/kg/d p.o.): 490 ng/g
- mean tissue concentration in heart ([4]; FTY720 5.0 mg/kg/d p.o.): 1848 ng/g
- concentration in the CSF [6]: No compound was detectable
Structure (SMILES): CCCCCCCCc1ccc(CCC(N)(CO)CO)cc1 [FTY720]
- 24-hr sodium excretion values and fractional excretion of sodium (rats [2]): elicited reductions
- hypertension in patients (patients): 2–3 mmHg
- urinary sodium excretion (rats [3]): reduction in urinary sodium excretion
- efficacious dose in EAE [5]: 0.3 mg/kg

- EC50 (human S1P5): 0.8 nM
- EC50 (Human S1P1): 2.5 nM
- EC50 (human S1P3): > 10000 nM
- selectivity over S1P4 (human S1P4; B arrestin EC50s): 100 fold
- EC50 (human S1P4): 245 nM
Structure (SMILES): CCc1cc(/C(C)=N/OCc2ccc(C3CCCCC3)c(C(F)(F)F)c2)ccc1CN1CC(C(=O)O)C1 [BAF312]
- efficacious dose in EAE [5]: 0.3 mg/kg

- Plasma concentration at Tmax [1, 27]: 83 ± 3 nM
- Plasma concentration [1, 7]: 66 ± 3 nM
- Plasma concentration [1, 8]: 83 ± 3 nM
- Plasma concentration [1, 9]: 43 ± 7 nM
- Plasma concentration [1, 10]: 29 ± 3 nM
- Plasma concentration [1, 11]: 4 ± 4 nM
- Plasma concentration at Tmax [1, 28]: 263 ± 13 nM
- Plasma concentration [1, 12]: 172 ± 16 nM
- Plasma concentration [1, 13]: 263 ± 13 nM
- Plasma concentration [1, 14]: 113 ± 2 nM
- Plasma concentration [1, 15]: 81 ± 11 nM
- Plasma concentration [1, 16]: 26 ± 4 nM
- Plasma concentration at Tmax [1, 29]: 360 ± 55 nM
- Plasma concentration [1, 17]: 285 ± 29 nM
- Plasma concentration [1, 18]: 339 ± 36 nM
- Plasma concentration [1, 19]: 360 ± 55 nM
- Plasma concentration [1, 20]: 152 ± 14 nM
- Plasma concentration [1, 21]: 165 ± 2 nM
- Plasma concentration at Tmax [1, 30]: 1090 ± 124 nM
- Plasma concentration [1, 22]: 559 ± 159 nM
- Plasma concentration [1, 23]: 1145 ± 505 nM
- Plasma concentration [1, 24]: 1090 ± 124 nM
- Plasma concentration [1, 25]: 455 ± 57 nM
- Plasma concentration [1, 26]: 629 ± 157 nM
- time post-dose through which plasma values were detectable [1]: at least 72 hrs
- mean tissue concentration in heart ([4]; FTY720 0.5 mg/kg/d p.o.): 513 ng/g
- mean tissue concentration in heart ([4]; FTY720 1.5 mg/kg/d p.o.): 757 ng/g
- mean tissue concentration in heart ([4]; FTY720 5.0 mg/kg/d p.o.): 3799 ng/g
- concentration in the CSF [6]: No compound was detectable
- EC50 (human S1P4): 26 nM
Structure (SMILES): CCCCCCCCc1ccc(CC[C@](N)(CO)COP(=O)(O)O)cc1 [FTY720-P]
